Assay results from patent US20130079348A1, “COMPOUNDS THAT MODULATE INTRACELLULAR CALCIUM” (CalciMedica, Inc., priority 2010, published 2013).

Tests used:
[1] = molecular target: STIM1 and Orai1 in HEK293 cells (Homo sapiens, UniProt Q96D31); conditions: HEK293 cells expressing STIM1 and Orai1; cited from earlier work
[2] = system: Jurkat cells; conditions: cited from earlier work
[3] = system: RBL-2H3 cells; assay: Fluorescence-based assay of store-operated calcium entry in RBL-2H3 cells; assay type: cell-based; conditions: Rattus norvegicus, thapsigargin store depletion, 50% of the Upslope inhibited
Procedure: B. Fluorescence-based Assay of Store-Operated Calcium Entry in RBL-2H3 Cells.
RBL-2H3 cells were obtained from ATCC and maintained in complete medium with 10% FBS at 37° C./6% CO2.
The day prior to performing the assay, RBL-2H3 cells are plated in 50 μL of complete medium in a 384 well plate. Cells are grown at 37° C./6% CO2 overnight and grow to 50-60% confluence by the next day. On the assay day, 1.5 μM Fluo-4-AM dye (Invitrogen) in complete medium is added and incubated for 1 hour at RT. Cells are washed twice in Ca^2+-free HBSS buffer and 35 μL Ca^2+-free HBSS buffer is added to each well. 10 μL of a test compound prepared in a Ca^2+-free HBSS solution at 4.5× of the desired concentration is added to a well and incubated for 5 minutes at RT. 10 μL of thapsigargin prepared in a Ca^2+-free HBSS solution at 5.5× of the desired concentration (5.5 uM) is added to each well and incubated for an additional 25 minutes. The initial baseline fluorescence signal is measured with a FLIPR^384 (Molecular Devices) plate reader. 5 μL of 12× calcium in HBSS (12 mM) is added and changes in cellular fluorescence are measured with the FLIPR^384 plate reader. In each well, the change in the fluorescent signal as a function of time due to calcium entry into the cell is determined by calculating the difference between the fluorescent signal measured 7 seconds after calcium addition and the initial baseline fluorescence signal at time zero (t=0). This parameter is designated Upslope. The IC50 value is calculated as the concentration at which 50% of the Upslope is inhibited.

[4] = molecular target: T1, recombinant human STIM1 and Orai1 (HEK-293 cells) (Homo sapiens, UniProt Q96D31); assay: Fluorescence-based assay of store-operated calcium entry in Orai1/STIM1 stable cells; assay type: cell-based; conditions: concentration that inhibited 50% of the Peak-Basal fluorescence signal; 30 min compound incubation; read-out: IC50(μM) JR251
T1 construct: c-myc (C); expressed in transfected cells; host or cells: HEK-293
T1 sequence (Q96D31 whole entry): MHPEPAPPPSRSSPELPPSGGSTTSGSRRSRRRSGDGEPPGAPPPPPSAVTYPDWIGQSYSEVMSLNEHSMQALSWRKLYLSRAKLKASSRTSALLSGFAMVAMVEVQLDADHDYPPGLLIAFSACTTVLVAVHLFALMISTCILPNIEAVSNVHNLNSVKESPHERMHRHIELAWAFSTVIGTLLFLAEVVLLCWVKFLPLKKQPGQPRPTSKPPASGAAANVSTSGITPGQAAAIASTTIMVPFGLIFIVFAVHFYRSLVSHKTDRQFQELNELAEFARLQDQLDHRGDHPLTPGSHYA
Procedure: A. Fluorescence-based Assay of Store-Operated Calcium Entry in Orai1/STIM1 Stable Cells.
Cells stably expressing recombinant human STIM1 and Orai1 were generated by transfecting a human Orai1 expression plasmid (pcDNA3.1-Orai1-cmyc) into HEK-293 cells stably overexpressing human STIM1 (Roos et al. 2005 JCB 169(3): 435-445). Colonies of cells stably expressing both STIM1 and Orai1 proteins were selected and then subcloned by limiting dilution. Cells were cultured at 37° C./6% CO2 in complete medium with 10% FBS and appropriate selection markers.
The day prior to performing the assay Orai1/STIM1 stable cells were plated in 50 μL of complete medium at 90-95% confluence in a 384 well plate. Cells were grown at 37° C./6% CO2 overnight. On the day of the assay, 1.5 μM fluo-4-AM (Invitrogen) in complete medium was added to the cells, which were then incubated for 1 hour at RT. Cells were washed once in Ca^2+-free HBSS (Hank's buffered saline solution) and 35 μl of Ca^2+-free HBSS was added to each well. Test compounds were added to wells in a 10 μL Ca^2+-free HBSS solution, prepared at 4.5× the desired final concentration, and incubated for 30 minutes at RT. The initial baseline fluorescence signal was then measured with a FLIPR^384 (Molecular Devices) plate reader. Calcium entry was initiated by adding 5 μl of 10× CaCl2 (10 mM) in HBSS, and changes in cellular fluorescence were measured with the FLIPR^384 plate reader. In each well, the magnitude of the fluorescence signal as a result of calcium entry into the cell was determined by calculating the difference between the peak fluorescence signal measured after calcium addition and the initial baseline fluorescence signal (designated Peak-Basal). IC50 values were typically calculated as the concentration that inhibited 50% of the Peak-Basal signal (Table A).

Chain of STIM1 and Orai1 in HEK293 cells (Q96D31 whole entry): as above

| SMILES | IC50 [3] | IC50 [4] | other results |
| --- | --- | --- | --- |
| NCCOB(c1ccccc1)c1ccccc1 [2-aminoethoxydiphenylborate] | – | – | block of store-operated Ca2+ entry [1]: completely blocked |
| Cc1nnsc1C(=O)Nc1ccc(-n2nc(C(F)(F)F)cc2C(F)(F)F)cc1 [BTP-2] | – | – | inhibition of proliferation ([2]; Jurkat cells and colon cancer cells): inhibits; inhibition of SOCE ([2]; Jurkat cells): inhibits |
| Cc1ccc(-c2scc(NC(=O)c3cc4c(F)cccn4n3)c2C(=O)O)c(F)c1 [Compound 1] | ≤ 0.5 µM | ≤ 0.5 µM | – |
| Cc1ccc(-c2csc(NC(=O)c3cc4cccc(C)n4n3)c2C(=O)O)c(F)c1 [Compound 2] | ≤ 0.5 µM | ≤ 0.5 µM | – |
| Cc1ccc(-c2csc(NC(=O)c3cc4cccc(C)n4n3)c2C(=O)O)c(F)c1F [Compound 3] | ≤ 0.5 µM | – | – |
| Cc1ccc(-c2csc(NC(=O)c3nn4ccccc4c3N)c2C(=O)O)c(F)c1F [Compound 4] | 1 to 10 µM | – | – |
| O=C(Nc1scc(-c2ccc(Cl)cc2)c1C(=O)O)c1cc2c(F)cc(F)cn2n1 [Compound 5] | 0.5 to 1 µM | 1 to 10 µM | – |
| Cc1ccc(-c2csc(NC(=O)c3cc4c(F)cc(F)cn4n3)c2C(=O)O)c(F)c1F [Compound 6] | 0.5 to 1 µM | – | – |
| COc1cccn2nc(C(=O)Nc3scc(-c4ccc(Cl)cc4)c3C(=O)O)cc12 [Compound 7] | 0.5 to 1 µM | – | – |
| Cc1ccc(-c2csc(NC(=O)c3cc4ccc(F)cn4n3)c2C(=O)O)c(F)c1F [Compound 8] | 0.5 to 1 µM | – | – |
| COc1cccc2cc(C(=O)Nc3scc(-c4ccc(Cl)cc4)c3C(=O)O)nn12 [Compound 9] | 1 to 10 µM | 0.5 to 1 µM | – |
| COc1cccn2nc(C(=O)Nc3scc(-c4ccc(C)c(F)c4F)c3C(=O)O)cc12 [Compound 10] | 0.5 to 1 µM | – | – |
| Cc1ccc(-c2csc(NC(=O)c3nc4ccc(F)cc4s3)c2C(=O)O)c(F)c1F [Compound 11] | ≤ 0.5 µM | ≤ 0.5 µM | – |
| Cc1ccc(-c2csc(NC(=O)c3nc4ccc(F)cc4s3)c2C(=O)O)c(F)c1 [Compound 12] | ≤ 0.5 µM | 0.5 to 1 µM | – |
| O=C(Nc1scc(-c2ccc(Cl)cc2F)c1C(=O)O)c1nc2c(F)cccc2s1 [Compound 13] | ≤ 0.5 µM | 0.5 to 1 µM | – |
| Cc1ccc(-c2csc(NC(=O)c3nc4c(F)cccc4s3)c2C(=O)O)c(F)c1 [Compound 14] | 0.5 to 1 µM | 0.5 to 1 µM | – |

| SMILES | IC50 [3] | IC50 [4] | other results |
| --- | --- | --- | --- |
| Cc1ccc(-c2csc(NC(=O)c3nc4cc(C(F)(F)F)ccc4s3)c2C(=O)O)c(F)c1F [Compound 15] | 0.5 to 1 µM | – | – |
| Cc1ccc(-c2csc(NC(=O)c3nc4ccc(Br)cc4s3)c2C(=O)O)c(F)c1F [Compound 16] | ≤ 0.5 µM | – | – |
| Nc1cccc2nc(C(=O)Nc3scc(-c4ccc(Cl)cc4)c3C(=O)O)sc12 [Compound 17] | ≤ 0.5 µM | ≤ 0.5 µM | – |
| Cc1ccc(-c2csc(NC(=O)c3nc4cccc(N)c4s3)c2C(=O)O)c(F)c1F [Compound 18] | ≤ 0.5 µM | 0.5 to 1 µM | – |
| COc1ccc2sc(C(=O)Nc3scc(-c4ccc(Cl)cc4)c3C(=O)O)nc2c1 [Compound 19] | ≤ 0.5 µM | 0.5 to 1 µM | – |
| COc1cccc2sc(C(=O)Nc3scc(-c4ccc(Cl)cc4)c3C(=O)O)nc12 [Compound 20] | 0.5 to 1 µM | ≤ 0.5 µM | – |
| O=C(Nc1scc(-c2ccc(Cl)cc2)c1C(=O)O)c1nc2cccc(Cl)c2s1 [Compound 21] | ≤ 0.5 µM | 0.5 to 1 µM | – |
| Cc1ccc(-c2csc(NC(=O)c3nc4cccc(Cl)c4s3)c2C(=O)O)c(F)c1F [Compound 22] | ≤ 0.5 µM | 0.5 to 1 µM | – |
| Cc1ccc(-c2csc(NC(=O)c3sc4ccccc4[n+]3[O-])c2C(=O)O)c(F)c1F [Compound 23] | ≤ 0.5 µM | 0.5 to 1 µM | – |
| CC(=O)Nc1cccc2nc(C(=O)Nc3scc(-c4ccc(Cl)cc4)c3C(=O)O)sc12 [Compound 24] | 0.5 to 1 µM | 1 to 10 µM | – |
| Cc1ccc(-c2csc(NC(=O)c3nc4cccc(O)c4s3)c2C(=O)O)c(F)c1F [Compound 25] | 1 to 10 µM | 0.5 to 1 µM | – |
| Cc1ccc(-c2csc(NC(=O)c3c(O)ccc(F)c3F)c2C(=O)O)c(F)c1F [Compound 26] | ≤ 0.5 µM | ≤ 0.5 µM | – |
| Cc1ccc(-c2csc(NC(=O)c3cc(F)cc(F)c3O)c2C(=O)O)c(F)c1F [Compound 27] | ≤ 0.5 µM | ≤ 0.5 µM | – |
| O=C(O)c1c(-c2ccc(Cl)cc2)csc1NC(=O)N1Cc2cccc(F)c2C1 [Compound 28] | ≤ 0.5 µM | ≤ 0.5 µM | – |
| Cc1ccc(-c2csc(NC(=O)c3ccc(F)c(F)c3O)c2C(=O)O)c(F)c1F [Compound 29] | ≤ 0.5 µM | ≤ 0.5 µM | – |
